# Source: ChEMBL document CHEMBL1131920, “Periodinates: a new class of protein tyrosine phosphatase inhibitors” (Bioorg Med Chem Lett, 1999)
# Biological target: T1, Tyrosine-protein phosphatase non-receptor type 1 (Homo sapiens, UniProt P18031)
# T1 sequence (P18031 whole entry): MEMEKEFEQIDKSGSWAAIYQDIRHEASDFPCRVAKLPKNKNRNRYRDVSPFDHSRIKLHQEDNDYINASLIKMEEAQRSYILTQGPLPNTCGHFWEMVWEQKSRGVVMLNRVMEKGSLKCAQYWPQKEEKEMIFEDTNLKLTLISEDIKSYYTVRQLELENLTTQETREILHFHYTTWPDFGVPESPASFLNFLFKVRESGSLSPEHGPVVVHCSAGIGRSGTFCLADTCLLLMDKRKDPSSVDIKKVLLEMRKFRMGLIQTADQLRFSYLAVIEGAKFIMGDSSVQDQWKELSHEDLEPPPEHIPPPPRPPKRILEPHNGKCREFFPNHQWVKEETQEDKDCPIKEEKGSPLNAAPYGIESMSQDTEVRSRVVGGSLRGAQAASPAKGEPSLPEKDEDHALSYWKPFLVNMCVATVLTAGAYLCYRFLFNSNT
# Experiment: Inhibition of protein tyrosine phosphatase 1B (PTP1B) activity in 3,6-fluorescein diphosphate (FDP) assay; NI= no inhibition; call rule not given here
row,Structure (SMILES),IC50
1,O=C1OI(O)c2ccccc21,Not Active

# Species on record: Rattus norvegicus
# Experiment: Inhibition of protein tyrosine phosphatase (PTP) activity in rat liver endosome insulin receptor (IR) dephosphorylation assay at 0.1 mM
row,Structure (SMILES),inhibition [%]
1,O=P1(O)Oc2ccccc2I(=O)(O)O1 (stereo not given),17
2,CC(=O)OI1(OC(C)=O)(OC(C)=O)OC(=O)c2ccccc21,50
3,OO,0
4,O=C(O)c1cccc(I(=O)=O)c1,32
5,Cc1ccc(I(=O)=O)cc1,6
6,CC(C)(C)OOI1OC(=O)c2ccccc21,48
7,O=I(=O)c1c[nH]cn1,22
8,O=[N+]([O-])c1ccc(I(=O)=O)cc1,30
9,O=[N+]([O-])c1cccc(I(=O)=O)c1,27
10,O=C1OI(=O)(O)c2ccccc21 (stereo not given),36
11,O=I(=O)c1ccccc1,0

# Biological target: T1, Tyrosine-protein phosphatase non-receptor type 1
# Experiment: Inhibition of protein tyrosine phosphatase 1B (PTP1B) activity in 3,6-fluorescein diphosphate (FDP) assay
row,Structure (SMILES),IC50 [µM]
1,O=P1(O)Oc2ccccc2I(=O)(O)O1 (stereo not given),350
2,CC(=O)OI1(OC(C)=O)(OC(C)=O)OC(=O)c2ccccc21,130
3,O=C(O)c1cccc(I(=O)=O)c1,890
4,Cc1ccc(I(=O)=O)cc1,1510
5,CC(C)(C)OOI1OC(=O)c2ccccc21,230
6,O=I(=O)c1ccc(I(=O)=O)cc1,1410
7,O=I(=O)c1c[nH]cn1,1050
8,O=[N+]([O-])c1ccc(I(=O)=O)cc1,130
9,O=[N+]([O-])c1cccc(I(=O)=O)c1,1140
10,O=C1OI(=O)(O)c2ccccc21 (stereo not given),1160
11,O=I(=O)c1ccccc1,2650

# Species on record: Rattus norvegicus
# Experiment: Inhibition of protein tyrosine phosphatase (PTP) activity in rat liver endosome insulin receptor (IR) dephosphorylation assay at 1 mM
row,Structure (SMILES),inhibition [%]
1,O=C1OI(O)c2ccccc21,10
2,CC(=O)OI1(OC(C)=O)(OC(C)=O)OC(=O)c2ccccc21,69
3,OO,65
4,O=C(O)c1cccc(I(=O)=O)c1,67
5,Cc1ccc(I(=O)=O)cc1,47
6,CC(C)(C)OOI1OC(=O)c2ccccc21,78
7,O=I(=O)c1ccc(I(=O)=O)cc1,30
8,O=I(=O)c1c[nH]cn1,43
9,O=[N+]([O-])c1ccc(I(=O)=O)cc1,90
10,O=[N+]([O-])c1cccc(I(=O)=O)c1,86
11,O=C1OI(=O)(O)c2ccccc21 (stereo not given),98
12,O=I(=O)c1ccccc1,88
